# According to patent publication US20040072992A1, “Novel peptide capable of specifically acting on biological membrane” (priority 2002, published 2004):
# “And” between values parts separate entries of the source, which are not always exact repeats. Equal values may be shown once. Where no end group is shown, it is not given here.
# Experiments:
# [1] = system: Erwinia carotovora (NBRC3380); test: Antibacterial activity against plant pathogenic bacteria; type: cell-based; conditions: 30° C., 16 to 24 h
# Method: Mast21, mast21R, ALR6, and KVL6 were evaluated with respect to antibacterial activity against Erwinia carotovora (NBRC3380) which is a plant pathogenic bacterium causing soft rot. Specifically, a minimum concentration of a peptide capable of inhibiting the growth of bacteria was determined using microtiter plates. Bacteria were cultured for 16 h in culture medium (Difco Nutrient Broth 8 g, NaCl 5 g/L, pH 7.0), followed by measurement of absorbance at A600. Each bacterial strain was diluted into a final concentration of 1×10^6 CFU/ml. For each peptide, 5 mM aqueous solution was prepared, and thereafter, was subjected to serial dilution. The peptide serial dilutions (50 μl for each) were added to respective wells of the microplate to which 50 μl of the bacterial solution had been added (final cell concentration: 5×10^5 CFU/ml, final peptide concentration: 0 to 50 μM). […] The unit of concentration described in Table 9 is μM.
# [2] = Anti-cancer activity, ACHN; type: cell-based, human; conditions: for CC50: kidney cancer, read-out: LC50 (the source's name); for CC50 at 2 days: human, ACHN cells (kidney cancer cells), read-out: LC50
# Method: (§1) Anti-cancer activity was evaluated using a method complying with an anti-cancer agent screening method (1990) using a human cancer cell panel which has been carried out by U.S. National Cancer Institute (NCI). Cells employed in experiments were from the following three cell lines: HL60 cell (cell line derived from human leukemia); HeLa cell (cell line derived from human uterine cancer); and HCT116 cell (cell line derived from human large intestine cancer). Media suitable for use of these cells are RPMI-1640 medium containing 10% FCS; a MEM medium containing 10% CS; and McCoy5A medium containing 10% FCS, respectively.
# (§2) Cells suspended in themedium wereplated into 96-well plates at a concentration of 1×10^5 cells/cm^2, followed by incubation overnight. Peptide solutions containing various concentrations of the peptide of the present invention were added to the plates, followed by incubation at 37° C. for 2 days in a CO2 incubator. During culturing, the growth of the cells was measured by colorimetry using sulforhodamine B and the peptide concentration was categorized into any of GI50 which is the concentration at which the growth is inhibited by 50% as compared to the control; TGI which is the concentration at which the number of cells is seemingly not increased or decreased from the time of addition of the peptide of the present invention, i.e., the growth is suppressed to the same number of cells as when the peptide was added: and LC50 which is the concentration at which the number of cells is decreased to 50% of that at the time of addition of the peptide.
# (§3) Thereafter, various cancer cells were employed to confirm the anti-cancer activity of mast21R. Each cancer cell was cultured in RPMI-1640 medium containing 10% FCS.
# S. aureus JCM2413 = conditions: JCM2413, 18 h
# S. enteritidis ATC14028 = conditions: ATC14028, 18 h
# [3] = Anti-cancer activity, EJ-1 cell; type: cell-based, human; conditions: for CC50: bladder cancer, read-out: LC50 (the source's name); for CC50 at 2 days: human, EJ-1 cells (bladder cancer cells), read-out: LC50
# Method: as §1, §2, §3
# erythrocytes = conditions: red cells of human, 100 μM
# E. coli CR-3 = conditions: CR-3, 18 h
# [4] = Anti-cancer activity, 5637 cell; type: cell-based, human; conditions: bladder cancer; for CC50: read-out: LC50 (the source's name); for CC50 at 2 days: human, read-out: LC50
# Method: as §1, §2, §3
# [5] = Anti-cancer activity, SR-BR-3; type: cell-based, human; conditions: SR-BR-3, breast cancer; for CC50: read-out: LC50 (the source's name); for CC50 at 2 days: human, SR-BR-3 cells (breast cancer cells), read-out: LC50
# Method: as §1, §2, §3
# [6] = Anti-cancer activity, EBC-1; type: cell-based, human; conditions: EBC-1, lung cancer; for CC50: read-out: LC50 (the source's name); for CC50 at 2 days: human, EBC-1 cells (lung cancer cells), read-out: LC50
# Method: as §1, §2, §3
# [7] = Anti-cancer activity, HCT-15; type: cell-based, human; conditions: HCT-15, large intestine cancer; for CC50: read-out: LC50 (the source's name); for CC50 at 2 days: human, HCT-15 cells (large intestine cancer cells), read-out: LC50
# Method: as §1, §2, §3
# [8] = Anti-cancer activity, LK-2; type: cell-based, human; conditions: LK-2, lung cancer; for CC50: read-out: LC50 (the source's name); for CC50 at 2 days: human, LK-2 cells (lung cancer cells), read-out: LC50
# Method: as §1, §2, §3
# [9] = Anti-cancer activity, A549; type: cell-based, human; conditions: A549, lung cancer; for CC50: read-out: LC50 (the source's name); for CC50 at 2 days: human, read-out: LC50
# Method: as §1, §2, §3
# E. coli JCM1649 = conditions: JCM1649, 18 h
# S. enteritidis ATCC1891 = conditions: ATCC1891, 18 h
# B. subtilis IFO13722 = conditions: IFO13722, 18 h
# S. aureus IFO13276 = conditions: IFO13276, 18 h
# [10] = Anti-cancer activity, D98-AH2; type: cell-based, human; conditions: for CC50: D98-AH2, uterine cancer, read-out: LC50 (the source's name); for CC50 at 2 days: human, D98-AH2 cells (uterine cancer cells), read-out: LC50
# Method: as §1, §2, §3
# [11] = Anti-cancer activity, KATO III cell; type: cell-based, human; conditions: for CC50: stomach cancer, read-out: LC50 (the source's name); for CC50 at 2 days: human, KATO III cells (stomach cancer cells), read-out: LC50
# Method: as §1, §2, §3
# B. sereus IFO3457 = conditions: 18 h
# [12] = Anti-cancer activity, A172; type: cell-based, human; conditions: A172, glioblastoma; for CC50: read-out: LC50 (the source's name); for CC50 at 2 days: human, read-out: LC50
# Method: as §1, §2, §3
# [13] = Anti-cancer activity, colo205; type: cell-based, human; conditions: colo205, large intestine cancer; for CC50: read-out: LC50 (the source's name); for CC50 at 2 days: human, read-out: LC50
# Method: as §1, §2, §3
# [14] = Anti-cancer activity, SH-10-TC; type: cell-based, human; conditions: for LC50: stomach cancer; for LC50 at 2 days: human, SH-10-TC cells (stomach cancer cells)
# Method: as §1, §2, §3
# E. coli CE-273 = conditions: CE-273, 18 h
# [15] = Anti-cancer activity, DU-145; type: cell-based, human; conditions: DU-145, prostate cancer; for CC50: read-out: LC50 (the source's name); for CC50 at 2 days: human, read-out: LC50
# Method: as §1, §2, §3
# [16] = Anti-cancer activity, MCF7; type: cell-based, human; conditions: for LC50: MCF7, breast cancer; for LC50 at 2 days: human, MCF7 cells (breast cancer cells)
# Method: as §1, §2, §3
# [17] = Anti-cancer activity, NIH OVCAR-3; type: cell-based, human; conditions: NIH OVCAR-3, ovarian cancer; for CC50: read-out: LC50 (the source's name); for CC50 at 2 days: human, NIH OVCAR-3 cells (ovarian cancer cells), read-out: LC50
# Method: as §1, §2, §3
# [18] = Anti-cancer activity, PC-3; type: cell-based, human; conditions: PC-3, prostate cancer; for CC50: read-out: LC50 (the source's name); for CC50 at 2 days: human, PC-3 cells (prostate cancer cells), read-out: LC50
# Method: as §1, §2, §3
# [19] = Anti-cancer activity, HL60 cell; type: cell-based, human; conditions: sulforhodamine B
# Method: as §1
# (§4) Cells suspended in themedium wereplated into 96-well plates at a concentration of 1×10^5 cells/cm^2, followed by incubation overnight. Peptide solutions containing various concentrations of the peptide of the present invention were added to the plates, followed by incubation at 37° C. for 2 days in a CO2 incubator. […]
# [20] = Anti-cancer activity, HeLa cell; type: cell-based, human; conditions: sulforhodamine B
# Method: as §1, §4
# [21] = Anti-cancer activity, HCT116 cell; type: cell-based, human; conditions: sulforhodamine B
# Method: as §1, §4
# [22] = 2 days, read-out: LC50 (the source's name)
sequence,measurement,setting,value
"KNWKGIAGMAKKLLGKNWKLM [mast21, reference compound]",MIC,[1],3.1 μM and 3.7 μg/ml
same,CC50,[2],80 µM
same,MIC,S. aureus JCM2413,12.5 µM
same,MIC,S. enteritidis ATC14028,6.3 µM
same,CC50,[3],70 µM
same,Hemolytic property (relative value),erythrocytes,5.4%
same,MIC,E. coli CR-3,6.3 µM
same,CC50,[4],> 100 µM
same,CC50,[5],90 µM
same,CC50,[6],100 µM
same,CC50,[7],80 µM
same,CC50,[8],> 100 µM
same,CC50,[9],70 µM
same,MIC,E. coli JCM1649,6.3 µM
same,MIC,S. enteritidis ATCC1891,6.3 µM
same,MIC,B. subtilis IFO13722,6.3 µM
same,MIC,S. aureus IFO13276,25 µM
same,CC50,[10],> 100 µM
same,CC50,[11],> 100 µM
same,MIC,B. sereus IFO3457,3.1 µM
same,CC50,[12],> 100 µM
same,CC50,[13],> 100 µM
same,LC50,[14],90 µM
same,MIC,E. coli CE-273,3.1 µM
same,CC50,[15],> 100 µM
same,LC50,[16],100 µM
same,CC50,[17],100 µM
same,CC50,[18],100 µM
"ALRALRALRALRALRALR [ALR6, ALRALRALRALRALRALR]",MIC,[1],3.1 μM and 3.2 μg/ml
same,CC50 at 2 days,[2],> 100 µM
same,CC50 at 2 days,[3],> 100 µM
same,CC50 at 2 days,[4],> 100 µM
same,CC50 at 2 days,[5],100 µM
same,CC50 at 2 days,[6],> 100 µM
same,CC50 at 2 days,[7],> 100 µM
same,CC50 at 2 days,[8],> 100 µM
same,CC50 at 2 days,[9],> 100 µM
same,CC50 at 2 days,[10],> 100 µM
same,CC50 at 2 days,[11],> 100 µM
same,CC50 at 2 days,[12],> 100 µM
same,CC50 at 2 days,[13],> 100 µM
same,LC50 at 2 days,[14],> 100 µM
same,CC50 at 2 days,[15],> 100 µM
same,LC50 at 2 days,[16],80 µM
same,CC50 at 2 days,[17],> 100 µM
same,CC50 at 2 days,[18],> 100 µM
RNWRGIAGMARRLLGRNWRLM [mast21R],MIC,[1],1.6 μM and 2 μg/ml
same,CC50,[2],30 µM
same,MIC,S. aureus JCM2413,6.25 µM
same,MIC,S. enteritidis ATC14028,3.1 µM
same,CC50,[3],20 µM
same,Hemolytic property (relative value),erythrocytes,13%
same,MIC,E. coli CR-3,1.6 µM
same,CC50,[4],50 µM
same,CC50,[5],90 µM
same,LC50,[19]; 2 days,20 µM
same,CC50,[6],70 µM
same,CC50,[7],30 µM
same,CC50,[8],> 100 µM
same,CC50,[9],50 µM
same,MIC,E. coli JCM1649,3.1 µM
same,MIC,S. enteritidis ATCC1891,3.1 µM
same,CC50,[20]; [22],20 µM
same,CC50,[21]; [22],2 µM
same,MIC,B. subtilis IFO13722,1.56 µM
same,MIC,S. aureus IFO13276,6.25 µM
same,CC50,[10],50 µM
same,CC50,[11],50 µM
same,MIC,B. sereus IFO3457,3.1 µM
same,CC50,[12],50 µM
same,CC50,[13],50 µM
same,LC50,[14],60 µM
same,MIC,E. coli CE-273,3.1 µM
same,CC50,[15],90 µM
same,LC50,[16],90 µM
same,CC50,[17],80 µM
same,CC50,[18],60 µM
"KVLKVLKVLKVLKVLKVL [KVL6, KVLKVLKVLKVLKVLKVL]",MIC,[1],3.1 μM and 3.2 μg/ml
same,CC50 at 2 days,[2],80 µM
same,CC50 at 2 days,[3],90 µM
same,CC50 at 2 days,[4],100 µM
same,CC50 at 2 days,[5],100 µM
same,CC50 at 2 days,[6],> 100 µM
same,CC50 at 2 days,[7],80 µM
same,CC50 at 2 days,[8],> 100 µM
same,CC50 at 2 days,[9],70 µM
same,CC50 at 2 days,[10],> 100 µM
same,CC50 at 2 days,[11],100 µM
same,CC50 at 2 days,[12],> 100 µM
same,CC50 at 2 days,[13],100 µM
same,LC50 at 2 days,[14],60 µM
same,CC50 at 2 days,[15],> 100 µM
same,LC50 at 2 days,[16],100 µM
same,CC50 at 2 days,[17],> 100 µM
same,CC50 at 2 days,[18],> 100 µM
"KVLKVLKVLKVLKVL [KVL5, KVLKVLKVLKVLKVL]",MIC,S. aureus JCM2413,200 µM
same,MIC,S. enteritidis ATC14028,100 µM
same,MIC,E. coli CR-3,25 µM
same,LC50 at 2 days,"[19]; human, HL60 cells (leukemia cell line)",> 100 µM
same,MIC,E. coli JCM1649,12.5 µM
same,MIC,S. enteritidis ATCC1891,25 µM
same,CC50 at 2 days,"[20]; human, HeLa cells (uterine cancer cell line), read-out: LC50",> 100 µM
same,CC50 at 2 days,"[21]; human, read-out: LC50",> 100 µM
same,MIC,B. subtilis IFO13722,25 µM
same,MIC,S. aureus IFO13276,100 µM
same,MIC,B. sereus IFO3457,200 µM
same,MIC,E. coli CE-273,6.3 µM
